Holding throughout (format): nucleic-acid assay
Details in all cases: Escherichia coli

The subject of assay [1] is Nucleic Acid. Nature of the assay: Induction of supercoiled pBR322 DNA cleavage at PH 7.2 after 16 hrs at 37 degC in presence of triethylamine.
Assay [2] deals with Nucleic Acid. The assay can be described thus: Induction of supercoiled pBR322 DNA cleavage at PH 7.2 after 8 hrs at 37 degC in presence of triethylamine.
In assay [3] the test system is Nucleic Acid. The assay can be described thus: Induction of supercoiled pBR322 DNA cleavage at PH 7.2 after 8 hrs at 37 degC in absence of triethylamine.
The subject of assay [4] is Nucleic Acid. The assay can be described thus: Induction of supercoiled pBR322 DNA cleavage at PH 7.2 after 16 hrs at 37 degC in absence of triethylamine.

The source made the active and inactive calls. No cut-off for these calls is given here.

Regarding `O=S(=O)(CC#Cc1ccccc1C#Cc1ccccc1C#CCS(=O)(=O)c1ccccc1)c1ccccc1`, the Activity with Nucleic Acid [1] and in the assay with Nucleic Acid [2] was 45% throughout.

Take `O=S(=O)(C=C=Cc1ccccc1C#CC#Cc1ccccc1C#CCS(=O)(=O)c1ccccc1)c1ccccc1`: the outcome in the assay with Nucleic Acid [3] and in the assay on Nucleic Acid [4] was Active.

Turning to `O=S(=O)(CC#Cc1ccccc1C#CC#Cc1ccccc1C#CCS(=O)(=O)c1ccccc1)c1ccccc1`, the Activity with Nucleic Acid [1] worked out at 62%; in the assay with Nucleic Acid [2] it was 47%.

For `O=S(=O)(C=C=Cc1ccccc1C#Cc1ccccc1C#CCS(=O)(=O)c1ccccc1)c1ccccc1`, the result in the assay on Nucleic Acid [3] and with Nucleic Acid [4] was Active.

The values are drawn from ChEMBL document CHEMBL1151883, “Design and synthesis of bisenediyne bissulfones and their reactivity under basic condition” (Bioorg Med Chem Lett, 2009).
